This is an account of results in patent US8129137B2, “Two-photon probe for real-time monitoring of intracellular free zinc ions, method for preparing the probe and method for real-time monitoring of intracellular free zinc ions using the probe” (Korea University Industrial & Academic Collaboration …, priority 2008, dated 2012).

Data set [1] can be described thus: Fluorescence quantum yield (Coumarin 307 as reference). In kind it is physicochemical. The settings on record: in methanol in the presence of Zn2+. How it is done: The absorption spectra of the two-photon probes were recorded on a Hewlett-Packard 8453 diode array spectrophotometer, and the fluorescence spectra of the two-photon probes were obtained with an Amico-Bowman series 2 luminescence spectrometer with a 1 cm standard quartz cell. The fluorescence quantum yields of the two-photon probes were determined by using Coumarin 307 as the reference by the literature method (J. N. Demas, G. A. Crosby, J. Phys. Chem. 1971, 75, 991-1024.). FIGS. 2a and 2b are one-photon absorption and emission spectra of the two-photon probe AZn1, respectively, and FIGS. 2c and 2d are one-photon absorption and emission spectra of the two-photon probe AZn2, respectively.

Data set [2] in a line: Two-photon cross section and action spectra. In kind it is physicochemical. As to conditions: in methanol in the presence of Zn2+; 780 nm. How it is done:
The two-photon cross section (δ) was determined by using femto second (fs) fluorescence measurement technique.
The intensities of the two-photon induced fluorescence spectra of the reference and the sample probe were measured, and the two-photon cross section of the sample probe was calculated according to Equation 3:
[formula] wherein the subscripts s and r represent sample and reference molecules, respectively, δ represents the two-photon cross section, S represents the strength of signals collected by a CCD detector, φ represents the fluorescence quantum efficiency, φrepresents the total fluorescence collection efficiency of an experimental system, c represents the number density of the molecules within each of the solutions, and δr represents the two-photon cross section of reference molecules.
Referring to FIG. 9, the two-photon action spectra of the Zn^2+ complexes with AZn1 and AZn2 in the buffer solutions indicated a φδ value of ˜90 GM at 780 nm, 4˜24-fold larger than those of TSQ and FluZin-3.

Take `COc1cc(NS(=O)(=O)c2ccc(C)cc2)c2ncccc2c1` [TSQ, reference compound]: the “fluorescence quantum yield φ” value in data set [1] stood at 0.43. In data set [2], the δ, peak two-photon cross section was found to be 10 GM and the “φδ, two-photon action cross section” value amounted to 4 GM.
